From patent publication US8268848B2, “Cyclopropane compound” (Eisai R&D Management Co., Ltd., priority 2010, dated 2012) come the findings set out here.

The target of one assay is T1, OX1 (Homo sapiens, UniProt O43613).
T1 sequence (O43613 1-425): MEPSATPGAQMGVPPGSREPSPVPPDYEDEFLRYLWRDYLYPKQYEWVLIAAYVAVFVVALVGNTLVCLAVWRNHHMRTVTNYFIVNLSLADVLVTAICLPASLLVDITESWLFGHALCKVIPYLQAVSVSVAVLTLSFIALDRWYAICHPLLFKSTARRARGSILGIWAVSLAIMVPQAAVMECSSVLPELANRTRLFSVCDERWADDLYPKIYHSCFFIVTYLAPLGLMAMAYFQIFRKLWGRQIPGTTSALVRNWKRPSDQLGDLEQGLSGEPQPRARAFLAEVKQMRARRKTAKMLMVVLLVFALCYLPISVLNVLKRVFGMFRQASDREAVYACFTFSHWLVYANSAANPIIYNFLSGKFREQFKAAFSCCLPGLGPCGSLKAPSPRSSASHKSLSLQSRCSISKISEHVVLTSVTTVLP
The assay is described as follows: Measurement of orexin receptor-binding ability ([125I]-OX-A, cell membranes, OX1). Also noted: expressed in transfected cells; host or cells: CHO cells (membrane preparation).

The next assay has as its target T2, OX2 (Homo sapiens, UniProt O43614).
T2 sequence (O43614 1-444): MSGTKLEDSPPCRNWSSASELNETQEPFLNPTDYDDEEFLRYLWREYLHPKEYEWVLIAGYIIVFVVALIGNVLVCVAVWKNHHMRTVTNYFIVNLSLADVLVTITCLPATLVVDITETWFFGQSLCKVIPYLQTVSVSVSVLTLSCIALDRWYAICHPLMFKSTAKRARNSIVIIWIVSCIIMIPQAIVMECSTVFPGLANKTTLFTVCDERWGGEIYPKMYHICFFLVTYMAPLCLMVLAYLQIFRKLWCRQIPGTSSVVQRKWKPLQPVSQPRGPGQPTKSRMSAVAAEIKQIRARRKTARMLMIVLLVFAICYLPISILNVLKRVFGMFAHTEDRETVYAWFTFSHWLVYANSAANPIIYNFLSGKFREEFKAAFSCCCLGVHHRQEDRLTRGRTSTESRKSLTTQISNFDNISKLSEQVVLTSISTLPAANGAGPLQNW
Put plainly: Measurement of orexin receptor-binding ability ([125I]-OX-A, cell membranes, OX2). Also noted: expressed in transfected cells; host or cells: CHO cells (membrane preparation). The following applies: membranes of recombinant CHO cells expressing OX2, 0.2 nM [125I]-OX-A; for pIC50: read-out: OX2 (IC50); for IC50: OX2 (IC50) nM.

Where [1] appears, read: membranes of recombinant CHO cells expressing OX1, 0.2 nM [125I]-OX-A, read-out: OX1 (IC50).

SMILES strings stand for the structures. pIC50: −log10 of the molar value. Where two headings read alike, the source gives them in different places. Some results are limits rather than exact numbers.

By pIC50 is commonly meant the negative decadic logarithm of the IC50, by convention in mol/L. What is called IC50 is the concentration needed to halve the response being measured.

Regarding `CCc1nc(C)ncc1OC[C@@]1(c2ccc(F)cc2)C[C@H]1C(=O)Nc1cc(Cl)ccn1` [Example 247, (1R,2S)-N-(4-chloropyridin-2-yl)-2-{[(4-ethyl-2-methylpyrimidin-5-yl)oxy]methyl}-2-(4-fluorophenyl)cyclopropanecarboxamide], the values for the pIC50 at OX1 (setting [1]) and at OX2 were 7.66 and 8.52, respectively.

For the molecule `CCc1nc(C)ncc1OC[C@@]1(c2ccc(F)cc2)C[C@H]1C(=O)Nc1cc(C)c(F)cn1` [Example 248, (1R,2S)-2-{[(4-ethyl-2-methylpyrimidin-5-yl)oxy]methyl}-N-(5-fluoro-4-methylpyridin-2-yl)-2-(4-fluorophenyl)cyclopropanecarboxamide], the values for the pIC50 on OX1 (setting [1]) and on OX2 were 8.00 and 8.52, respectively.

With `COc1cc(F)cc([C@]2(COc3cnc(C)nc3C)C[C@H]2C(=O)Nc2ccc(F)cn2)c1` [Example 254], the negative logarithm of the IC50 (pIC50) at OX1 is 6.96. In addition, the IC50 at OX2 worked out at 11 nM.

Take `Cc1ncc(OCC2(c3cccnc3)CC2C(=O)Nc2ccc(Cl)cn2)c(C)n1` (centres unmarked) [Example 260, N-(5-chloropyridin-2-yl)-2-{[(2,4-dimethylpyrimidin-5-yl)oxy]methyl}-2-pyridin-3-ylcyclopropanecarboxamide]: the pIC50 on OX1 (setting [1]) is less than 5.70; at OX2 it was 7.15.

`Cc1ncc(OCC2(c3ccccc3F)CC2C(=O)Nc2ccc(Cl)cn2)c(C)n1` (centres unmarked) [Example 262] gave a pIC50 on OX1 of 7.07. Further, the 50% inhibitory concentration (IC50) at OX2 worked out at 51 nM.

As for `Cc1ncc(OCC2(c3cccc(C(F)(F)F)c3)CC2C(=O)Nc2ccc(C#N)cn2)c(C)n1` (centres unmarked) [Example 264], the negative-log IC50 (pIC50) at OX1 (setting [1]) was 6.10; at OX2, 7.64.

`Cc1ncc(OCC2(c3cccc(C(F)(F)F)c3)CC2C(=O)Nc2ccc(Cl)cn2)c(C)n1` (centres unmarked) [Example 265] had a negative logarithm of the IC50 (pIC50) on OX1 of 7.37. The IC50 on OX2 came to 10 nM.

On to `Cc1ncc(OC[C@@]2(c3cccc(C(F)(F)F)c3)C[C@H]2C(=O)Nc2ccc(F)cn2)c(C)n1` [Example 266, (1R,2S)-2-{[(2,4-dimethylpyrimidin-5-yl)oxy]methyl}-N-(5-fluoropyridin-2-yl)-2-(3-trifluoromethylphenyl)cyclopropanecarboxamide], for which the negative-log IC50 (pIC50) at OX1 is 7.52. Moreover, at OX2, the IC50 came to 2.7 nM.

Take `Cc1ncc(OC[C@@]2(c3cccs3)C[C@H]2C(=O)Nc2ccc(Cl)cn2)c(C)n1` [Example 267]: the pIC50 was 6.93 at OX1 (setting [1]) and 7.19 at OX2.

Consider `Cc1ncc(OC[C@@]2(c3cccs3)C[C@H]2C(=O)Nc2ccc(F)cn2)c(C)n1` [Example 268], for which the negative logarithm of the IC50 (pIC50) at OX1 was 6.79. For the same molecule, on OX2, the IC50 came to 36 nM.

In the case of `Cc1ncc(OC[C@@]2(c3ccsc3)C[C@H]2C(=O)Nc2ccc(Cl)cn2)c(C)n1` [Example 269], the negative-log IC50 (pIC50) is 6.58 at OX1 (setting [1]) and 7.64 on OX2.

`Cc1ncc(OC[C@@]2(c3ccsc3)C[C@H]2C(=O)Nc2ccc(F)cn2)c(C)n1` [Example 270] showed a negative-log IC50 (pIC50) at OX1 of 6.58. Moreover, the IC50 at OX2 was 58 nM.

As to `Cc1ncc(OCC2(c3cccc(Br)c3)CC2C(=O)Nc2ccc(F)cn2)c(C)n1` (centres unmarked) [Example 271], on OX1, the negative-log IC50 (pIC50) was 7.74. The IC50 at OX2 is 5 nM.

Take `Cc1ncc(OC[C@@]2(c3ccc(Br)cc3)C[C@H]2C(=O)Nc2ccc(Cl)cn2)c(C)n1` [Example 273, (1R,2S)-2-(4-bromophenyl)-N-(5-chloropyridin-2-yl)-2-{[(2,4-dimethylpyrimidin-5-yl)oxy]methyl}cyclopropanecarboxamide]: on OX1, the negative-log IC50 (pIC50) was 7.16. In addition, the IC50 at OX2 was 10 nM.

For `Cc1ncc(OC[C@@]2(c3ccc(Br)cc3)C[C@H]2C(=O)Nc2ccc(F)cn2)c(C)n1` [Example 274], the pIC50 at OX1 was 7.23. Besides, the IC50 at OX2 stood at 19 nM.

For the molecule `Cc1ncc(OCC2(c3ccccc3F)CC2C(=O)Nc2cccnc2)c(C)n1` (centres unmarked) [Example 276], at OX1, the negative-log IC50 (pIC50) was 5.49. On OX2, the IC50 was 76 nM.

`Cc1ncc(OCC2(c3cccc(C(F)(F)F)c3)CC2C(=O)Nc2cccnc2)c(C)n1` (centres unmarked) [Example 277]: the pIC50 is 5.65 on OX1 (setting [1]) and 6.98 at OX2.

Consider `Cc1ccc(NC(=O)[C@@H]2C[C@@]2(COc2cnc(C)nc2C)c2cccc(F)c2)nc1` [Example 278], for which the pIC50 on OX1 is 7.12. The half-maximal inhibitory concentration (IC50) at OX2 came to 10 nM.

In the case of `Cc1ncc(OC[C@@]2(c3cccc(F)c3)C[C@H]2C(=O)Nc2ccc(Br)cn2)c(C)n1` [Example 279], the negative logarithm of the IC50 (pIC50) at OX1 is 7.62. The half-maximal inhibitory concentration (IC50) at OX2 stood at 3.2 nM.

Molecule `Cc1ncc(OC[C@@]2(c3cccc(F)c3)C[C@H]2C(=O)Nc2ccc(I)cn2)c(C)n1` [Example 280] gave a negative logarithm of the IC50 (pIC50) at OX1 of 7.62. In addition, the half-maximal inhibitory concentration (IC50) on OX2 stood at 21 nM.

The molecule `Cc1ncc(OC[C@@]2(c3cccc(F)c3)C[C@H]2C(=O)Nc2ccc(CF)cn2)c(C)n1` [Example 282] showed a negative logarithm of the IC50 (pIC50) at OX1 of 7.68. Further, the half-inhibitory concentration (IC50) on OX2 was 2.4 nM.

On OX1, `Cc1ncc(OC[C@@]2(c3cccc(I)c3)C[C@H]2C(=O)Nc2ccc(F)cn2)c(C)n1` [Example 283, (1R,2S)-2-{[(2,4-dimethylpyrimidin-5-yl)oxy]methyl}-N-(5-fluoropyridin-2-yl)-2-(3-iodophenyl)cyclopropanecarboxamide] had a negative-log IC50 (pIC50) of 6.76. Also, the IC50 on OX2 stood at 9 nM.

In the case of `Cc1nc(C)[n+]([O-])cc1OC[C@@]1(c2cccc(F)c2)C[C@H]1C(=O)Nc1ccc(F)cn1` [Example 284], the negative-log IC50 (pIC50) on OX1 was 6.95. The half-maximal inhibitory concentration (IC50) on OX2 worked out at 6 nM.

In the case of `Cc1ncc(OC[C@@]2(c3cccc(F)c3)C[C@H]2C(=O)Nc2ccc(F)cn2)c(C)[n+]1[O-]` [Example 285], the pIC50 at OX1 was 7.11. Further, the half-inhibitory concentration (IC50) at OX2 was found to be 16 nM.

For the molecule `Cc1ncc(OC[C@@]2(c3cccc(F)c3)C[C@H]2C(=O)Nc2ccc(F)cn2)c(CO)n1` [Example 286, (1R,2S)-2-(3-fluorophenyl)-N-(5-fluoropyridin-2-yl)-2-{[(4-hydroxymethyl-2-methylpyrimidin-5-yl)oxy]methyl}-2-(3-fluorophenyl)cyclopropanecarboxamide], the negative-log IC50 (pIC50) at OX1 is less than 6.70. For the same molecule, the half-maximal inhibitory concentration (IC50) on OX2 stood at 4.5 nM.

As for `O=C(Nc1ccc(F)cn1)[C@@H]1C[C@@]1(COc1c[nH]c(=O)nc1C(F)(F)F)c1cc(F)cc(F)c1` [Example 291, (1R,2S)-2-(3,5-difluorophenyl)-N-(5-fluoropyridin-2-yl)-2-{[(2-oxo-4-trifluoromethyl-1,2-dihydropyrimidin-5-yl)oxy]methyl}cyclopropanecarboxamide], the values for the negative-log IC50 (pIC50) at OX1 (setting [1]) and on OX2 were less than 6.70 and 7.31, respectively.

On to `Cc1ncc(CC[C@@]2(c3ccccc3)C[C@H]2C(=O)Nc2cc(C)c(F)cn2)c(C)n1` [Example 292, (1R,2R)-2-[2-(2,4-dimethylpyrimidin-5-yl)ethyl]-N-(5-fluoro-4-methylpyridin-2-yl)-2-phenylcyclopropanecarboxamide], for which the pIC50 is 6.62 on OX1 (setting [1]) and 7.47 at OX2.

On to `Cc1ncc(N(C)C[C@@]2(c3cccc(F)c3)C[C@H]2C(=O)Nc2cc(C)c(F)cn2)c(C)n1` [Example 293], for which the pIC50 at OX1 (setting [1]) was 7.10; on OX2, 8.05.

With `Cc1ncc(N(C)C[C@@]2(c3cccc(F)c3)C[C@H]2C(=O)Nc2ccc(F)cc2)c(C)n1` [Example 294], the values for the pIC50 at OX1 (setting [1]) and at OX2 were less than 6.70 and 7.85, respectively.

On to `Cc1ncc(N(C)C[C@@]2(c3cccc(F)c3)C[C@H]2C(=O)Nc2cc(C)c(Cl)cn2)c(C)n1` [Example 295, (1R,2S)-N-(5-chloro-4-methylpyridin-2-yl)-2-[N-(2,4-dimethylpyrimidin-5-yl)methylaminomethyl]-2-(3-fluorophenyl)cyclopropanecarboxamide], for which the values for the pIC50 at OX1 (setting [1]) and on OX2 were 8.30 and 8.22, respectively.

For the molecule `Cc1ncc(N(C)C[C@@]2(c3cccc(F)c3)C[C@H]2C(=O)Nc2ccc(F)c(F)c2)c(C)n1` [Example 296], the values for the negative-log IC50 (pIC50) on OX1 (setting [1]) and on OX2 were less than 6.70 and 8.10, respectively.

On to `Cc1ncc(N(C)C[C@@]2(c3ccccc3)C[C@H]2C(=O)Nc2cc(C)c(F)cn2)c(C)n1` [Example 299], for which the pIC50 at OX1 (setting [1]) is 6.52; at OX2 it was 7.34.

As to `Cc1ncc(N(C)C[C@@]2(c3ccccc3)C[C@H]2C(=O)Nc2ccc(F)cc2)c(C)n1` [Example 300], the negative logarithm of the IC50 (pIC50) is 6.31 at OX1 (setting [1]) and 7.47 on OX2.

As to `Cc1ncc(N(C)C[C@@]2(c3ccccc3)C[C@H]2C(=O)Nc2cc(C)c(Cl)cn2)c(C)n1` [Example 301], the negative logarithm of the IC50 (pIC50) on OX1 (setting [1]) is 6.76; at OX2 it was 7.55.
